# Source: patent publication US10538555B2, “Macrocyclic inhibitors of the PD-1/PD-L1 and CD80(B7-1)/PD-L1 protein/protein interactions” (BRISTOL-MYERS SQUIBB COMPANY, priority 2014, dated 2020)
# *1 amine or outer side, *2 acyl side, *3 side chain or, on linkers, in order; H or OH if unused. Where a SMILES comes first, the peptide text is derived from it. Bridges are numbered along the chain shown (N, C = ends). [ ]: non-standard residue; d: D form. Phe(3,4,5-F3) = N[C@@H](Cc1cc(F)c(F)c(F)c1)C(=O)O; d(cisHyp) = O=C(O)[C@H]1C[C@@H](O)CN1; Phe(2-F) = N[C@@H](Cc1ccccc1F)C(=O)O; NMeF = CN[C@@H](Cc1ccccc1)C(=O)O; X1 = O=C([C@H]1COCCN1[*:1])[*:2]; NMeNle = CCCC[C@H](NC)C(=O)O; hSer = N[C@@H](CCO)C(=O)O; Orn = NCCC[C@H](N)C(=O)O
# Biological target: T1, Human PD-L1/PD-1 (Homo sapiens, UniProt Q9NZQ7)
# T1 construct: TVMV protease cleavage site (C); made in house; host or cells: HEK293T cells
# Assay: HTRF Human PD-L1/PD-1 binding assay (PD-1-Ig/PD-L1-His)
# Settings: PD-L1-His 10 nM, PD-1-Ig 20 nM; class symbol; read-out: HTRF Human PD-L1/PD-1 Binding Assay IC50 Range
# In short: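 HTRF competition using HEK293T-expressed human PD-1(25-167)-Ig at 20 nM and PD-L1(18-239)-His at 10 nM, compound incubated first with PD-L1 for 15 min, then with PD-1 for 15 min. Signal read as 665/620 nm ratio 30 min after adding Eu anti-Ig and APC anti-His antibodies.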
# T1 sequence (Q9NZQ7 with tags, fused parts or gaps): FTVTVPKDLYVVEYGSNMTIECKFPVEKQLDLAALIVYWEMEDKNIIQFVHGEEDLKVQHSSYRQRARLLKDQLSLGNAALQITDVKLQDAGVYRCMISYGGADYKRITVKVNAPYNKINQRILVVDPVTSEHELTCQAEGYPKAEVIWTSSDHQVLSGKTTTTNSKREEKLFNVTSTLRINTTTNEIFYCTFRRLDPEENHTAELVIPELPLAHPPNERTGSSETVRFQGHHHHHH
row,SMILES,IC50
1,"CCCC[C@H]1C(=O)N2C[C@H](O)C[C@@H]2C(=O)N[C@@H](CC(=O)O)C(=O)N[C@@H](C(C)C)C(=O)N(C)[C@@H](Cc2ccccc2)C(=O)N[C@@H](Cc2ccc(O)cc2)C(=O)N2CCC[C@@H]2C(=O)N[C@@H](Cc2c[nH]c3ccccc23)C(=O)N[C@@H](Cc2ccc(O)cc2)C(=O)N[C@@H](CCOC)C(=O)N[C@H](C(=O)NCC(N)=O)CSCC(=O)N[C@@H](Cc2cc(F)c(F)c(F)c2)C(=O)N(C)[C@@H](Cc2ccccc2)C(=O)N1C [Example 10186] ({CH2CO}-[Phe(3,4,5-F3)][NMeF][NMeNle][d(cisHyp)]DV[NMeF]Y[dP]WY[hSer](Me)CG-NH2; thioether N-13)",10 to 99.9 nM
2,"CCCC[C@H]1C(=O)N2CCOC[C@@H]2C(=O)N[C@@H](CC(=O)O)C(=O)N[C@@H](C(C)C)C(=O)N(C)[C@@H](Cc2ccccc2)C(=O)N[C@@H](CCC(=O)O)C(=O)N2C[C@H](O)C[C@@H]2C(=O)N[C@@H](Cc2c[nH]c3ccccc23)C(=O)N[C@@H](Cc2ccc(O)cc2)C(=O)N[C@@H](CCOC)C(=O)N[C@H](C(=O)NCC(N)=O)CSCC(=O)N[C@@H](Cc2cc(F)c(F)c(F)c2)C(=O)N(C)[C@@H](Cc2ccccc2)C(=O)N1C [Example 10189] ({CH2CO}-[Phe(3,4,5-F3)][NMeF][NMeNle][X1]DV[NMeF]E[d(cisHyp)]WY[hSer](Me)CG-NH2; thioether N-13)",10 to 99.9 nM
3,"CCCC[C@H]1C(=O)N2CCOC[C@@H]2C(=O)N[C@@H](CC(=O)O)C(=O)N[C@@H](C(C)C)C(=O)N(C)[C@@H](Cc2ccccc2)C(=O)N[C@@H](CCC(=O)O)C(=O)N2CCC[C@@H]2C(=O)N[C@@H](Cc2c[nH]c3ccccc23)C(=O)N[C@@H](Cc2ccc(O)cc2)C(=O)N[C@@H](CCOC)C(=O)N[C@H](C(=O)NCC(N)=O)CSCC(=O)N[C@@H](Cc2cc(F)c(F)c(F)c2)C(=O)N(C)[C@@H](Cc2ccccc2)C(=O)N1C [Example 10192] ({CH2CO}-[Phe(3,4,5-F3)][NMeF][NMeNle][X1]DV[NMeF]E[dP]WY[hSer](Me)CG-NH2; thioether N-13)",10 to 99.9 nM
4,"CCCC[C@H]1C(=O)N2C[C@H](O)C[C@@H]2C(=O)N[C@@H](CC(=O)O)C(=O)N[C@@H](C(C)C)C(=O)N(C)[C@@H](Cc2ccccc2)C(=O)N[C@@H](CCOC)C(=O)N2CCOC[C@@H]2C(=O)N[C@@H](Cc2c[nH]c3ccccc23)C(=O)N[C@@H](Cc2ccc(O)cc2)C(=O)N[C@@H](CC(C)C)C(=O)N[C@H](C(=O)NCC(N)=O)CSCC(=O)N[C@@H](Cc2cc(F)c(F)c(F)c2)C(=O)N(C)[C@@H](Cc2ccccc2)C(=O)N1C [Example 10194] ({CH2CO}-[Phe(3,4,5-F3)][NMeF][NMeNle][d(cisHyp)]DV[NMeF][hSer](Me)[X1]WYLCG-NH2; thioether N-13)",10 to 99.9 nM
5,CCCC[C@H]1C(=O)N[C@@H](CC(N)=O)C(=O)N2CCC[C@H]2CN[C@@H](CO)C(=O)N[C@@H](CCO)C(=O)N2CCC[C@H]2C(=O)N[C@@H](Cc2c[nH]c3ccccc23)C(=O)N[C@@H](CN)C(=O)N[C@@H](Cc2c[nH]c3ccccc23)C(=O)N(C)[C@@H](C)C(=O)N(C)[C@@H](C)C(=O)N[C@@H](CCCNC(=N)N)C(=O)NC(C(=O)NCC(N)=O)CSCC(=O)N[C@@H](Cc2ccc(O)cc2)C(=O)N1C (stereo partly drawn) [Example 10196],1000 to 10000 nM
6,CCCC[C@H]1C(=O)N[C@@H](CC(N)=O)C(=O)N2CCC[C@H]2CN[C@@H](CO)C(=O)N[C@@H](CCO)C(=O)N2CCC[C@H]2C(=O)N[C@@H](Cc2c[nH]c3ccccc23)C(=O)N[C@@H](CCN)C(=O)N[C@@H](Cc2c[nH]c3ccccc23)C(=O)N(C)[C@@H](C)C(=O)N(C)[C@@H](C)C(=O)N[C@@H](CCCNC(=N)N)C(=O)NC(C(=O)NCC(N)=O)CSCC(=O)N[C@@H](Cc2ccc(O)cc2)C(=O)N1C (stereo partly drawn) [Example 10197],1000 to 10000 nM

# Continued, values first:
row,IC50,SMILES
1,10 to 99.9 nM,"CCCC[C@H]1C(=O)N2CCOC[C@@H]2C(=O)N[C@@H](CC(=O)O)C(=O)N[C@@H](C(C)C)C(=O)N(C)[C@@H](Cc2ccccc2)C(=O)N[C@@H](Cc2ccc(O)cc2)C(=O)N2C[C@H](O)C[C@@H]2C(=O)N[C@@H](Cc2c[nH]c3ccccc23)C(=O)N[C@@H](Cc2ccc(O)cc2)C(=O)N[C@@H](CCOC)C(=O)N[C@H](C(=O)NCC(N)=O)CSCC(=O)N[C@@H](Cc2cc(F)c(F)c(F)c2)C(=O)N(C)[C@@H](Cc2ccccc2)C(=O)N1C [Example 10183] ({CH2CO}-[Phe(3,4,5-F3)][NMeF][NMeNle][X1]DV[NMeF]Y[d(cisHyp)]WY[hSer](Me)CG-NH2; thioether N-13)"
2,10 to 99.9 nM,"CCCC[C@H]1C(=O)N2CCOC[C@@H]2C(=O)N[C@@H](CC(=O)O)C(=O)N[C@@H](C(C)C)C(=O)N(C)[C@@H](Cc2ccccc2)C(=O)N[C@@H](CCCN)C(=O)N2C[C@H](O)C[C@@H]2C(=O)N[C@@H](Cc2c[nH]c3ccccc23)C(=O)N[C@@H](Cc2ccc(O)cc2)C(=O)N[C@@H](CCOC)C(=O)N[C@H](C(=O)NCC(N)=O)CSCC(=O)N[C@@H](Cc2cc(F)c(F)c(F)c2)C(=O)N(C)[C@@H](Cc2ccccc2)C(=O)N1C [Example 10184] ({CH2CO}-[Phe(3,4,5-F3)][NMeF][NMeNle][X1]DV[NMeF][Orn][d(cisHyp)]WY[hSer](Me)CG-NH2; thioether N-13)"
3,1 to 9.9 nM,"CCCC[C@H]1C(=O)N2CCOC[C@@H]2C(=O)N[C@@H](CC(=O)O)C(=O)N[C@@H](C(C)C)C(=O)N(C)[C@@H](Cc2ccccc2)C(=O)N[C@@H](Cc2ccc(O)cc2)C(=O)N2CCC[C@@H]2C(=O)N[C@@H](Cc2c[nH]c3ccccc23)C(=O)N[C@@H](Cc2ccc(O)cc2)C(=O)N[C@@H](CCOC)C(=O)N[C@H](C(=O)NCC(N)=O)CSCC(=O)N[C@@H](Cc2cc(F)c(F)c(F)c2)C(=O)N(C)[C@@H](Cc2ccccc2)C(=O)N1C [Example 10185] ({CH2CO}-[Phe(3,4,5-F3)][NMeF][NMeNle][X1]DV[NMeF]Y[dP]WY[hSer](Me)CG-NH2; thioether N-13)"
4,1 to 9.9 nM,"CCCC[C@H]1C(=O)N2CCC[C@@H]2C(=O)N[C@@H](CC(=O)O)C(=O)N[C@@H](C(C)C)C(=O)N(C)[C@@H](Cc2ccccc2)C(=O)N[C@@H](Cc2ccc(O)cc2)C(=O)N2CCOC[C@@H]2C(=O)N[C@@H](Cc2c[nH]c3ccccc23)C(=O)N[C@@H](Cc2ccc(O)cc2)C(=O)N[C@@H](CCOC)C(=O)N[C@H](C(=O)NCC(N)=O)CSCC(=O)N[C@@H](Cc2cc(F)c(F)c(F)c2)C(=O)N(C)[C@@H](Cc2ccccc2)C(=O)N1C [Example 10187] ({CH2CO}-[Phe(3,4,5-F3)][NMeF][NMeNle][dP]DV[NMeF]Y[X1]WY[hSer](Me)CG-NH2; thioether N-13)"
5,1 to 9.9 nM,"CCCC[C@H]1C(=O)N2CCC[C@@H]2C(=O)N[C@@H](CC(=O)O)C(=O)N[C@@H](C(C)C)C(=O)N(C)[C@@H](Cc2ccccc2)C(=O)N[C@@H](CCC(=O)O)C(=O)N2C[C@H](O)C[C@@H]2C(=O)N[C@@H](Cc2c[nH]c3ccccc23)C(=O)N[C@@H](Cc2ccc(O)cc2)C(=O)N[C@@H](CCOC)C(=O)N[C@H](C(=O)NCC(N)=O)CSCC(=O)N[C@@H](Cc2cc(F)c(F)c(F)c2)C(=O)N(C)[C@@H](Cc2ccccc2)C(=O)N1C [Example 10188] ({CH2CO}-[Phe(3,4,5-F3)][NMeF][NMeNle][dP]DV[NMeF]E[d(cisHyp)]WY[hSer](Me)CG-NH2; thioether N-13)"
6,1 to 9.9 nM,"CCCC[C@H]1C(=O)N2C[C@H](O)C[C@@H]2C(=O)N[C@@H](CC(=O)O)C(=O)N[C@@H](C(C)C)C(=O)N(C)[C@@H](Cc2ccccc2)C(=O)N[C@@H](CCCN)C(=O)N2CCC[C@@H]2C(=O)N[C@@H](Cc2c[nH]c3ccccc23)C(=O)N[C@@H](Cc2ccc(O)cc2)C(=O)N[C@@H](CCOC)C(=O)N[C@H](C(=O)NCC(N)=O)CSCC(=O)N[C@@H](Cc2cc(F)c(F)c(F)c2)C(=O)N(C)[C@@H](Cc2ccccc2)C(=O)N1C [Example 10191] ({CH2CO}-[Phe(3,4,5-F3)][NMeF][NMeNle][d(cisHyp)]DV[NMeF][Orn][dP]WY[hSer](Me)CG-NH2; thioether N-13)"
7,1 to 9.9 nM,"CCCC[C@H]1C(=O)N2C[C@H](O)C[C@@H]2C(=O)N[C@@H](CC(=O)O)C(=O)N[C@@H](C(C)C)C(=O)N(C)[C@@H](Cc2ccccc2)C(=O)N[C@@H](CCC(=O)O)C(=O)N2CCC[C@@H]2C(=O)N[C@@H](Cc2c[nH]c3ccccc23)C(=O)N[C@@H](Cc2ccc(O)cc2)C(=O)N[C@@H](CCOC)C(=O)N[C@H](C(=O)NCC(N)=O)CSCC(=O)N[C@@H](Cc2cc(F)c(F)c(F)c2)C(=O)N(C)[C@@H](Cc2ccccc2)C(=O)N1C [Example 10193] ({CH2CO}-[Phe(3,4,5-F3)][NMeF][NMeNle][d(cisHyp)]DV[NMeF]E[dP]WY[hSer](Me)CG-NH2; thioether N-13)"
8,1 to 9.9 nM,"CCCC[C@H]1C(=O)N2C[C@H](O)C[C@@H]2C(=O)N[C@@H](CC(=O)O)C(=O)N[C@@H](C(C)C)C(=O)N(C)[C@@H](Cc2ccccc2)C(=O)N[C@@H](Cc2ccc(O)cc2)C(=O)N2CCOC[C@@H]2C(=O)N[C@@H](Cc2c[nH]c3ccccc23)C(=O)N[C@@H](Cc2ccccc2F)C(=O)N[C@@H](CC(C)C)C(=O)N[C@H](C(=O)NCC(N)=O)CSCC(=O)N[C@@H](Cc2cc(F)c(F)c(F)c2)C(=O)N(C)[C@@H](Cc2ccccc2)C(=O)N1C [Example 10195] ({CH2CO}-[Phe(3,4,5-F3)][NMeF][NMeNle][d(cisHyp)]DV[NMeF]Y[X1]W[Phe(2-F)]LCG-NH2; thioether N-13)"

# Same assay, conditions: PD-L1-His 10 nM, PD-1-Ig 20 nM; read-out: HTRF Human PD-L1/PD-1 Binding Assay IC50
row,SMILES,IC50
1,"CCCC[C@H]1C(=O)N2CCOC[C@@H]2C(=O)N[C@@H](CC(=O)O)C(=O)N[C@@H](C(C)C)C(=O)N(C)[C@@H](Cc2ccccc2)C(=O)N[C@@H](CCCN)C(=O)N2CCC[C@@H]2C(=O)N[C@@H](Cc2c[nH]c3ccccc23)C(=O)N[C@@H](Cc2ccc(O)cc2)C(=O)N[C@@H](CCOC)C(=O)N[C@H](C(=O)NCC(N)=O)CSCC(=O)N[C@@H](Cc2cc(F)c(F)c(F)c2)C(=O)N(C)[C@@H](Cc2ccccc2)C(=O)N1C [Example 10190] ({CH2CO}-[Phe(3,4,5-F3)][NMeF][NMeNle][X1]DV[NMeF][Orn][dP]WY[hSer](Me)CG-NH2; thioether N-13)",8.2 nM
